Where two headings read alike, the source gives them in different places. Values belong to the compound of their own block, whether it stands above or below them.
Assays:
Type in all cases: cell-based, human
T98 g cells = test: Cell cycle DNA analysis in synchronized cells; conditions: for Cells retained in G1: 19 h after serum re-addition, 100 μM
Experimental: Experimentally this finding was substantiated analysing the compounds in a cellular model with synchronized cells. T98 g cells were arrested in G1 phase (82%) by serum starvation in MCDB 105 medium after 72 h. Upon 10% serum re-addition, cells were allowed to re-enter into the cell cycle. More than 50% of the cells were in the S-phase, and only 20% remained in G1 after 19 h of FCS introduction. Addition of N10-13-10C or N13-13-10C to the cultures at the moment of serum addition restrained S-phase entry (FIG. 7. A). Around 40% of the cells were retained in G1. In conclusions both N10-13-10C and N13-13-10C were able to induce a G1 arrest either in asynchronous or in synchronized cell cultures, as determined by cell cycle DNA analysis. In comparison, Olomucine which is a cdk2 inhibitor, retained 80% of the cells in G1. The topoisomerase II inhibitor etoposide treated cells were arrested in S phase of the cell cycle (85% of the cell population).
DNA analysis. Floating and adherent cells treated with the compounds were collected by trypsinization and washed twice with PBS. The cells were permeabilized overnight at −20° C. with ice-cold ethanol 70%. The cells were washed in PBS, adjusted at 0.5×10^6 cells/ml and incubated with 20 μg/ml Propidium Iodide and 2 μl/ml RNase DNase-free for 30 min at 30° C. Cells were maintained overnight at 4° C. and then analysed by flow cytometry. Flow cytometric experiments were carried out using an Epics XL flow cytometer (Coulter Corporation, Hialeah, Fla.). The instrumet was set up with the standard configuration: excitation of the sample was done using an standard 488 nm air-cooled argon-ion laser at 15 mW power. Forward scatter (FSC), side scatter (SSC) and red (620 nm) fluorescence for PI were adquired. Optical alignement was based on optimized signal from […] fluorescent beads (Immunocheck, Epics Division). Time was used as a control of the stability of the instrument. Red fluorescence was projected on a 1024 monoparametrical histogram. Aggregates were excluded gating single cells by their area vs. peak fluorescence signal. DNA analysis (Ploidy analysis) on single fluorescence histograms was done using Multicycle software (Phoenix Flow Systems, San Diego, Calif.).
(§1) FIG. 7. […] (A) T98 g cells were synchronized and reinitiated for 19 h with FCS alone or in combination with N10-13-10C (100 μM), N13-13-10C (100 μM), Olomucine (100 μM), etoposide (5 μM) or Taxol (30 nM). Cell cycle profile was assessed by propidium iodide DNA staining and analyzed by flow cytometry. The fraction of cells with G1, S, G2/M DNA content are shown as % of total cell population. (B. and C.) Synchronized T98 g cells were reinitiated with FCS alone or in combination with serial dilutions of N4-13-10C, N5-13-10C, N10-13-10C, N13-13-10C, Olomucine or etoposide for 19 h and labeled with BrdU during the last 2 h. BrdU incorporation was assessed by ELISA using anti-BrdU antibodies. An arbitrary value of 100% was assigned to the densiometric rate of DNA synthesis by untreated cultures and all other values are depicted relative to that reference. The values are means of three (n=3) replicates.

T98g glioblastoma cells = test: BrdU incorporation assay (DNA synthesis); conditions: synchronized T98 g, 17 h + 2 h BrdU, read-out: IC50 BrdU incorporation (DNA synthesis inhibition)
Experimental: To confirm the G1 arrest of the cell cycle, we analyzed the DNA synthesis by an BrdU incorporation assay. Serial dilutions of the compounds N4-13-10C, N5-13-10C, N10-13-10C, N13-13-10C, etoposide or olomucine were assayed on synchronized T98 g cells as described in FIG. 7. A. Arrested cells were induced to cell cycle re-entry by re-addition of serum alone or with test compounds for 17 h, followed by 2 h in combination with 10 μM BrdU.
BrdU assay. T98g glioblastoma cells at 5000 cells/well in microtiter plates were arrested in G1-phase for 72 h by serum deprivation in MCDB 105 medium. By serum (10%) readdition, cells were treated with serial dilutions of the compounds for 17 h, and followed in combination 10 μM BrdU for […]. BrdU incorporation, i.e. DNA synthesis, was quantified with Cell Proliferation ELISA system, vs. 2 (AmershamPharmacia biotech) as described by the manufacturer.
as §1

Bcl-xL = test: Western blot of Bcl-xL phosphorylation; conditions: HT29 cells, 3, 6 and 24 h
Experimental: Western blotting. Floating and adherent cells were harvested and pellets were resuspended in RIPA buffer (50 mM Tris/HCl 7.4, 250 mM NaCl, 0,5% Igepal CA630, 5 mM EDTA, 1 mM PMSF, 10 μg/ml leupeptin, 50 mM NaF, 0.1 mM Na3VO4) or Deoxycholate buffer (10 mM phosphate buffer 7.4, […] NaCl, 0.5% Deoxycholate, 1% Igepal, 0.1% SDS, 1 mM PMSF). Protein concentration was determined with BCA Protein Assay Kit (Pierce) for RIPA extracts or Bradford assay (BioRad) for Deoxycholate extracts. Total protein (20-30 μg/lane) were separated by SDS-PAGE, transferred to PVDF membranes (Gellman), and probed with antibodies against Bcl-xL (Transduction); Bax (Santa Cruz); JNK (Santa Cruz); phospho-JNK (Cell Signaling); pRb (Pharmingen); pRb-phospho Ser780 (Cell Signalling); p130 (Santa Cruz); p107 (Santa Cruz); Cdk2 (Santa Cruz); p27^Kip1 (Santa Cruz); p21^Cip1 (Santa Cruz); actin (Sigma); or tubulin (ICN) and developed with ECL system (AmershamPharmacia biotech)
FIG. 6. (A) JNK is activated after N13-13-10C treatment. HT29 cells were treated for 1, 3, 6 and 24 h with N13-13-10C (35 μM), harvested and immunoblotted to assess activation of SAP/JNK MAP kinase. Western blot was first probed with the JNK-phosphor specific antibody, was stripped and reprobed with the pan-JNK antibody and actin to normalize total protein level. […]

IC50 (T98g glioblastoma cells): 50 µM
Structure (SMILES): Cn1cnc2c(NCc3ccccc3)nc(NCCO)nc21 [Olomucine]
Cells retained in G1 (T98 g cells): 80%
Cells retained in G1 (T98 g cells; listed as olomucine): 82%

Structure (SMILES): CC(=O)O[C@H]1C(=O)[C@@]2(C)[C@H]([C@H](OC(=O)c3ccccc3)[C@]3(O)C[C@H](OC(=O)[C@H](O)[C@@H](NC(=O)c4ccccc4)c4ccccc4)C(C)=C1C3(C)C)[C@]1(OC(C)=O)CO[C@@H]1C[C@@H]2O [Taxol, reference compound]
Effect on cell cycle profile (T98 g cells; 19 h of treatment, Taxol 30 nM): does not effect cell cycle profile
Bcl-xL phosphorylation (slower migrating band) (Bcl-xL): phosphorylated bcl-xL

IC50 (T98g glioblastoma cells; Homo sapiens, T98G): 200 µM
Structure (SMILES): COc1cc([C@@H]2c3cc4c(cc3[C@@H](O[C@@H]3O[C@@H]5CO[C@@H](C)O[C@H]5[C@H](O)[C@H]3O)[C@H]3COC(=O)[C@H]23)OCO4)cc(OC)c1O [etoposide, reference compound]
Cells arrested in S phase (T98 g cells; 19 h, etoposide 5 μM): 85%

Source: patent US20060229255A1, “Identification of n-alkylglycine trimers for induction of apoptosis” (priority 2003, published 2006)
